# Tested on: PARP 1
# Test: HTRF assay for PARP 1 inhibitory effect
# Format: biochemical, human or bovine
# Details: at 10 μM
# Description: In the HTRF PARP assay according to the invention, histones, as target proteins for modification by PARP, are labeled indirectly with an XL665 fluorophore. The antibody is labeled directly with a europium cryptate. If the XL665 fluorophore is in the direct vicinity in space, which is ensured by binding to the poly(ADP-ribose) on the histone, then an energy transfer is possible. The emission at 665 nm is thus directly proportional to the amount of bound antibody, which in turn is equivalent to the amount of poly(ADP-ribose). The measured signal thus corresponds to the PARP activity. The principle of measurement is depicted diagrammatically in FIG. 7. The materials used are identical to those used in the ELISA (see above) unless expressly stated.
# Histones were dissolved in a concentration of 3 mg/ml in Hepes buffer (50 mM, pH=7.5). Biotinylation took place with sulfo-NHS-LC-biotin (Pierce, #21335T). A molar ratio of 4 biotin per histone was used. The incubation time was 90 minutes (RT). The biotinylated histones were then purified on a G25 SF HR10/10 column (Pharmacia, 17-0591-01) in Hepes buffer (50 mM, pH=7.0) in order to remove excess biotinylation reagent. […]
# Measurement was then possible after 30 minutes (up to 4 hours). […] The Ki values were calculated as described for the ELISA. […]
structure (smiles),measurement,value
O=c1[nH]nc(CN2CCN(c3ccccc3)CC2)c2ccccc12 [4-(4-phenylpiperazin-1-yl)methyl-2H-phthalazin-1-one],inhibition of PARP 1,38%

# Reference: patent US6903098B1, “Use of phthalazine derivatives” (Abbott GmbH & Co., priority 1999, dated 2005)
